Experimental data taken from PubChem BioAssay (NCI).
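The concentration for 50% growth inhibition is given as GI50. Definition used: TGI = concentration required for complete inhibition of growth.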

Columns and labels:
Assay in all cases: NCI-60 cell line screen, 384-well format
UACC-257 melanoma = test system: UACC-257 melanoma
SK-MEL-5 melanoma = test system: SK-MEL-5 melanoma
SW-620 colon = test system: SW-620 colon
HOP-62 NSCLC = test system: HOP-62 NSCLC
SK-MEL-28 melanoma = test system: SK-MEL-28 melanoma
HL-60(TB) leukemia = test system: HL-60(TB) leukemia
MCF7 breast = test system: MCF7 breast
OVCAR-5 ovarian = test system: OVCAR-5 ovarian
SK-OV-3 ovarian = test system: SK-OV-3 ovarian
UO-31 renal = test system: UO-31 renal
MDA-MB-231 breast = test system: MDA-MB-231 breast
NCI-H460 NSCLC = test system: NCI-H460 NSCLC
HCT-116 colon = test system: HCT-116 colon
ACHN renal = test system: ACHN renal
MOLT-4 leukemia = test system: MOLT-4 leukemia
RPMI-8226 leukemia = test system: RPMI-8226 leukemia
SNB-19 CNS = test system: SNB-19 CNS
LOX IMVI melanoma = test system: LOX IMVI melanoma
MDA-MB-435 melanoma = test system: MDA-MB-435 melanoma
BT-549 breast = test system: BT-549 breast
SN12C renal = test system: SN12C renal
A498 renal = test system: A498 renal
UACC-62 melanoma = test system: UACC-62 melanoma
HS 578T breast = test system: HS 578T breast
NCI/ADR-RES ovarian = test system: NCI/ADR-RES ovarian
NCI-H522 lung = test system: NCI-H522 lung
TK-10 renal = test system: TK-10 renal
KM12 colon = test system: KM12 colon
SR leukemia = test system: SR leukemia
HOP-92 NSCLC = test system: HOP-92 NSCLC
OVCAR-3 ovarian = test system: OVCAR-3 ovarian
DU-145 prostate = test system: DU-145 prostate
SF-268 CNS = test system: SF-268 CNS
CAKI-1 renal = test system: CAKI-1 renal
SF-295 CNS = test system: SF-295 CNS
IGROV1 ovarian = test system: IGROV1 ovarian
NCI-H226 lung = test system: NCI-H226 lung
M14 melanoma = test system: M14 melanoma
HCC-2998 colon = test system: HCC-2998 colon
U251 glioblastoma = test system: U251 glioblastoma
EKVX NSCLC = test system: EKVX NSCLC
CCRF-CEM leukemia = test system: CCRF-CEM leukemia
786-0 renal = test system: 786-0 renal
MDA-MB-468 breast = test system: MDA-MB-468 breast
T-47D breast = test system: T-47D breast
NCI-H322M lung = test system: NCI-H322M lung
OVCAR-8 ovarian = test system: OVCAR-8 ovarian
SNB-75 CNS = test system: SNB-75 CNS
HCT-15 colon = test system: HCT-15 colon
MALME-3M melanoma = test system: MALME-3M melanoma
OVCAR-4 ovarian = test system: OVCAR-4 ovarian
K-562 leukemia = test system: K-562 leukemia
SF-539 CNS = test system: SF-539 CNS
COLO 205 colon = test system: COLO 205 colon
HT29 colon = test system: HT29 colon
PC-3 prostate = test system: PC-3 prostate
RXF 393 renal = test system: RXF 393 renal
A549 NSCLC = test system: A549 NSCLC
NCI-H23 lung = test system: NCI-H23 lung

In the case of `CC1CCC(n2c3cnccc3c3cnc(Nc4ccc5c(n4)CCN(C(=O)CO)C5)nc32)CC1` (stereo not given), the GI50 (UACC-257 melanoma) was > 100 µM, the TGI (UACC-257 melanoma) was > 100 µM and the GI50 (SK-MEL-5 melanoma) was 2360 nM. The TGI (SK-MEL-5 melanoma) was > 94.8 µM, the GI50 (SW-620 colon) was 1050 nM and the TGI (SW-620 colon) was 14.2 µM. The GI50 (HOP-62 NSCLC) was 3.66 µM, the TGI (HOP-62 NSCLC) was > 100 µM and the GI50 (SK-MEL-28 melanoma) was 11.9 µM. For the same compound, the TGI (SK-MEL-28 melanoma) was > 100 µM, the GI50 (HL-60(TB) leukemia) was 286 nM and the TGI (HL-60(TB) leukemia) was 1750 nM. For the same compound, the GI50 (MCF7 breast) was 1040 nM, the TGI (MCF7 breast) was > 100 µM and the GI50 (OVCAR-5 ovarian) was 2230 nM. For the same compound, the TGI (OVCAR-5 ovarian) was > 100 µM, the GI50 (SK-OV-3 ovarian) was 21.6 µM and the TGI (SK-OV-3 ovarian) was > 100 µM. The GI50 (UO-31 renal) was 15.1 µM, the TGI (UO-31 renal) was > 100 µM and the GI50 (MDA-MB-231 breast) was 2910 nM. For the same compound, the TGI (MDA-MB-231 breast) was 14.4 µM, the GI50 (NCI-H460 NSCLC) was 749 nM and the TGI (NCI-H460 NSCLC) was 4.74 µM. For the same compound, the GI50 (HCT-116 colon) was 1690 nM, the TGI (HCT-116 colon) was 16.2 µM and the GI50 (ACHN renal) was 2590 nM. The TGI (ACHN renal) was > 21.9 µM, the GI50 (MOLT-4 leukemia) was 278 nM and the TGI (MOLT-4 leukemia) was 2710 nM. The GI50 (RPMI-8226 leukemia) was 253 nM, the TGI (RPMI-8226 leukemia) was 1710 nM and the GI50 (SNB-19 CNS) was 7.56 µM. For the same compound, the TGI (SNB-19 CNS) was > 100 µM, the GI50 (LOX IMVI melanoma) was 2400 nM and the TGI (LOX IMVI melanoma) was > 100 µM. For the same compound, the GI50 (MDA-MB-435 melanoma) was 8.55 µM, the TGI (MDA-MB-435 melanoma) was > 100 µM and the GI50 (BT-549 breast) was 6.54 µM. For the same compound, the TGI (BT-549 breast) was > 72.4 µM, the GI50 (SN12C renal) was 16.3 µM and the TGI (SN12C renal) was > 100 µM. It also gave a GI50 (A498 renal) of 1780 nM, a TGI (A498 renal) of 9.42 µM and a GI50 (UACC-62 melanoma) of 6.15 µM. The TGI (UACC-62 melanoma) was > 100 µM, the GI50 (HS 578T breast) was 18.3 µM and the TGI (HS 578T breast) was > 100 µM. For the same compound, the GI50 (NCI/ADR-RES ovarian) was 13.9 µM, the TGI (NCI/ADR-RES ovarian) was > 100 µM and the GI50 (NCI-H522 lung) was 6.06 µM. The TGI (NCI-H522 lung) was > 100 µM, the GI50 (TK-10 renal) was 5.16 µM and the TGI (TK-10 renal) was > 100 µM. It also gave a GI50 (KM12 colon) of 293 nM, a TGI (KM12 colon) of 4.05 µM and a GI50 (SR leukemia) of 316 nM. The TGI (SR leukemia) was 829 nM, the GI50 (HOP-92 NSCLC) was 6.32 µM and the TGI (HOP-92 NSCLC) was > 20.6 µM. For the same compound, the GI50 (OVCAR-3 ovarian) was 5.68 µM, the TGI (OVCAR-3 ovarian) was 12.6 µM and the GI50 (DU-145 prostate) was 7.86 µM. The TGI (DU-145 prostate) was 42.2 µM, the GI50 (SF-268 CNS) was 4.47 µM and the TGI (SF-268 CNS) was 15.2 µM. The GI50 (CAKI-1 renal) was 1420 nM, the TGI (CAKI-1 renal) was > 28 µM and the TGI (SF-295 CNS) was > 73.9 µM. For the same compound, the GI50 (IGROV1 ovarian) was 8.39 µM, the TGI (IGROV1 ovarian) was > 100 µM and the GI50 (NCI-H226 lung) was 9.33 µM. For the same compound, the TGI (NCI-H226 lung) was > 100 µM, the GI50 (M14 melanoma) was 8.48 µM and the TGI (M14 melanoma) was > 100 µM. The GI50 (HCC-2998 colon) was 1690 nM, the TGI (HCC-2998 colon) was > 100 µM and the GI50 (U251 glioblastoma) was 7.16 µM. The TGI (U251 glioblastoma) was > 100 µM, the TGI (EKVX NSCLC) was > 100 µM and the GI50 (CCRF-CEM leukemia) was 638 nM. For the same compound, the TGI (CCRF-CEM leukemia) was 2310 nM, the GI50 ([…]-0 renal) was 12.4 µM and the TGI (786-0 renal) was 66.9 µM. The GI50 (MDA-MB-468 breast) was 13.5 µM, the TGI (MDA-MB-468 breast) was 57.8 µM and the GI50 (T-47D breast) was > 100 µM. For the same compound, the TGI (T-47D breast) was > 100 µM, the GI50 (NCI-H322M lung) was 8.61 µM and the TGI (NCI-H322M lung) was > 26.4 µM. For the same compound, the GI50 (OVCAR-8 ovarian) was 6.42 µM, the TGI (OVCAR-8 ovarian) was > 100 µM and the GI50 (SNB-75 CNS) was 4.47 µM. The TGI (SNB-75 CNS) was > 20.3 µM, the GI50 (HCT-15 colon) was 656 nM and the TGI (HCT-15 colon) was > 100 µM. For the same compound, the GI50 (MALME-3M melanoma) was 19.8 µM, the TGI (MALME-3M melanoma) was > 100 µM and the GI50 (OVCAR-4 ovarian) was 15.1 µM. The TGI (OVCAR-4 ovarian) was > 40 µM, the GI50 (K-562 leukemia) was 3.64 µM and the TGI (K-562 leukemia) was > 100 µM. The GI50 (SF-539 CNS) was 5.87 µM, the TGI (SF-539 CNS) was > 100 µM and the GI50 (COLO 205 colon) was 846 nM. The GI50 (HT29 colon) was 6.05 µM, the TGI (HT29 colon) was > 100 µM and the GI50 (PC-3 prostate) was 7.58 µM. For the same compound, the TGI (PC-3 prostate) was > 81.2 µM, the GI50 (RXF 393 renal) was > 20.7 µM and the TGI (RXF 393 renal) was > 100 µM. For the same compound, the GI50 (A549 NSCLC) was 2150 nM, the TGI (A549 NSCLC) was > 100 µM and the GI50 (NCI-H23 lung) was 3.4 µM. The TGI (NCI-H23 lung) was > 100 µM.
